This is an account of results in paper PMC6600393, “Synthesis and Cytostatic Effect of 3’-deoxy-3’-C-Sulfanylmethyl Nucleoside Derivatives with D-xylo Configuration” (Molecules, 2019).

The IC50 is the concentration that inhibits the measured activity by half. Read a low IC50 as inhibition by little substance.

Molecules are shown by their SMILES. Entries after “also recorded” stand apart in the source; their conditions may differ. Some results are limits rather than exact numbers.

Test [1] relates to HaCaT (human keratinocyte) cell line. In words: MTT cell viability assay on HaCaT cells. The following applies: for IC50: Homo sapiens, HaCaT, 48 h; for HaCaT IC50: MTT, 48 h incubation, 10,000 cells/well, '-' = no cytotoxicity at 20 µg/mL. In kind it is cell-based. As for the experimental part:
(§1) For the investigation of the cytotoxic effect of nucleoside analogues we used healthy human keratinocyte (HaCaT) and tumorous squamous carcinoma SCC-VII cell lines. In the experiments, a standard citotoxicity assay, the MTT assay, was used in a 96-well plate. Importantly, different cell numbers were used in the case of the two different cell lines. The HaCaT cells were seeded 10^4/well concentration while the SCC-VII cells were seeded 5000/well concentration on the plate. In both cases the cells were treated with the nucleoside analogues at ~50% confluence.
The HaCaT cell line was derived from human skin, the cells spontaneously transformed in vitro during long time incubation. Cells were cultured in DMEM medium (Biocenter, Szeged, Hungary) containing 10% fetal bovine serum (FBS, Hyclon, Logan, UT) and 1% antibiotic-antimycotic mix (Penicillin–Streptomycin–Neomycin).
(§2) Cell cultures had been kept under the same conditions during the experiments. Cells were stored at 37 °C, 95% humidity, and 5% CO2 in an incubator. During the MTT-assay, different starter cell number was used because of the cell cycle differences; HaCaT was started with 10.000/well meanwhile SCC VII with 5000/well. After passage, 24 h was assured for the cells to the adhesion. Then incubated with the compounds for 48 h. The experiments were performed in 96 well plates.
(§3) For the dilution of different concentrations of nucleoside analogues were prepared with DMSO 1% (v/v) and DMEM / DMEM-F12/Ham’s F12 cell culture medium.
(§4) After three days of incubation in the cell culture flask, cells were trypsinised into single cell suspensions. Aliquots (200 μL) of each cell suspension were placed in wells of 96-well-plates (Biocenter, Szeged, Hungary). Preliminary tests were conducted with cell numbers 5000 (SCC-VII) and 10,000 (HaCaT) per well. We have been tested five concentrations of each nucleoside analogues (20-10-5-2.5-1.25 µg/mL). The nucleoside analogues were dissolved in DMSO (1 v/v%) and DMEM/ DMEM-F12/Ham’s F12 were added to the wells to produce the required concentrations and the cells were similarly incubated for a further 48 h.
(§5) MTT (Sigma Aldrich, Budapest, Hungary) solution (0.5 mg/mL in PBS) 100 µL was added to each well. The plates were incubated for 1–2 h at 37 ^◦C, the wells aspirated, and MTT formazan extracted with 100 µL of DMSO aided by gentle agitation on a shaker. After 10 min at room temperature, the absorbances were read at 570 nm by an automatic plate reader (WALLAC Victor 2 1420 spectrophotometer), the instrument having been blanked beforehand on a row to which cells had not been added. Percentage viability (respiratory competence) of the population of cells in each well was expressed as: (Absorbance of treated cells/Absorbance of control cells) × 100. IC50 values of the nucleoside analogues were determined by Graphpad.
In general terms: Formazan colour is commonly taken as a measure of viable cells.

In test [2] the test system is SCC-VII (mouse squamous carcinoma) cell line. In words: MTT cell viability assay on SCC-VII cells. It is filed as cell-based. The following applies: for SCC IC50: MTT, 48 h incubation, 5000 cells/well, '-' = no cytotoxicity at 20 µg/mL; for IC50: Mus musculus, 48 h; for SI (selectivity index): HaCaT IC50/SCC IC50. As for the experimental part: as §1
SCC-VII is a carcinoma tumor that originally arose in the abdominal wall of C3H mice in Dr. Herman Suit’s laboratory at Harvard University, Boston, Massachusetts. SCC VII cells were grown in Dulbecco’s Modified Eagle’s Medium Nutrient Mixture (DMEM-HAM’S F12) (Sigma-Aldrich) supplemented with 2 mM L-glutamine, 23 mM NaHCO3, 100 U/mL penicillin, 100 U/mL streptomycin 1% non-essential amino acids and 10% fetal bovine serum.
as §2, §3, §4, §5

Turning to `CC(=O)OC[C@H]1O[C@@H](SC[C@@H]2[C@@H](O[Si](C)(C)C(C)(C)C)[C@H](n3ccc(=O)[nH]c3=O)O[C@@H]2CO[Si](C)(C)C(C)(C)C)[C@H](OC(C)=O)[C@@H](OC(C)=O)[C@@H]1OC(C)=O` [Compound 1], in test [1], the IC50 is greater than 20 µg/mL and the “HaCaT IC50” value is listed as “no cytotoxic effect; also recorded: no cytotoxicity; also recorded: complete loss of activity”. In addition, in test [2], the “SCC IC50” value is recorded as “no cytotoxic effect; also recorded: no cytotoxicity; also recorded: complete loss of activity” and the concentration for half-maximal inhibition (IC50) was greater than 20 µg/mL.

As for `CCCSC[C@@H]1[C@@H](O[Si](C)(C)C(C)(C)C)[C@H](n2ccc(=O)[nH]c2=O)O[C@@H]1CO[Si](C)(C)C(C)(C)C` [Compound 2], in test [1], the IC50 amounted to 12.6 ± 0.22 µM and the “HaCaT IC50” value is recorded as “remarkable toxic effect”. Moreover, in test [2], the “SI (selectivity index)” value came to 1.07, the “SCC IC50” value is given as “remarkable toxic effect” and the half-maximal inhibitory concentration (IC50) is 11.8 ± 0.22 µM.

`CC(=O)OC[C@H]1O[C@@H](SC[C@@H]2[C@@H](O[Si](C)(C)C(C)(C)C)[C@H](n3cc(C)c(=O)[nH]c3=O)O[C@@H]2CO[Si](C)(C)C(C)(C)C)[C@H](OC(C)=O)[C@@H](OC(C)=O)[C@@H]1OC(C)=O` [Compound 3]: in test [1], the concentration for half-maximal inhibition (IC50) is 22.4 ± 2.91 µM and the “HaCaT IC50” value was “quite toxic”. Besides, in test [2], the “SCC IC50” value was “no cytotoxic effect; also recorded: no cytotoxicity; also recorded: complete loss of activity” and the half-inhibitory concentration (IC50) is greater than 20 µg/mL.

`CC(=O)OCC1OC(SCC2C(CO[Si](C)(C)C(C)(C)C)OC(n3cc(C)c(=O)[nH]c3=O)C2O[Si](C)(C)C(C)(C)C)C(OC(C)=O)C(OC(C)=O)C1OC(C)=O` (stereo not drawn) [Compound 4]: in test [1], the 50% inhibitory concentration (IC50) is greater than 20 µg/mL and the “HaCaT IC50” value is recorded as “no cytotoxic effect; also recorded: no cytotoxicity; also recorded: complete loss of activity”. For the same molecule, in test [2], the “SCC IC50” value is reported as “no cytotoxic effect; also recorded: no cytotoxicity; also recorded: complete loss of activity” and the half-inhibitory concentration (IC50) is greater than 20 µg/mL.

As to `CCCSC[C@@H]1[C@@H](O[Si](C)(C)C(C)(C)C)[C@H](n2cc(C)c(=O)[nH]c2=O)O[C@@H]1CO[Si](C)(C)C(C)(C)C` [Compound 5, 1-[3’-Deoxy-3’-C-(n-propylsulfanylmethyl)-2’,5’-di-O-(tert-butyldimethylsilyl)-β-D-xylofuranosyl]-thymine], in test [1], the half-maximal inhibitory concentration (IC50) was determined as 22.2 ± 1.7 µM and the “HaCaT IC50” value is on record as “remarkable toxic effect”. For the same molecule, in test [2], the “SI (selectivity index)” value is recorded as 1.46, the “SCC IC50” value is listed as “remarkable toxic effect” and the IC50 came to 15.2 ± 1 µM.

Turning to `Cc1cn([C@@H]2O[C@H](CO[Si](C)(C)C(C)(C)C)[C@@H](O)[C@H]2O[Si](C)(C)C(C)(C)C)c(=O)[nH]c1=O` [Compound 6T, 2’,5’-di-O-tert-butyldimethylsilyl-ribothymidine], in test [1], the IC50 amounted to 15.6 ± 4.45 µM and the “HaCaT IC50” value is on record as “remarkable toxicity”. Also, in test [2], the “SI (selectivity index)” value was determined as 0.83, the “SCC IC50” value is recorded as “remarkable toxicity” and the IC50 stood at 18.8 ± 0.74 µM.

In test [1], `CCSC[C@@H]1[C@@H](O[Si](C)(C)C(C)(C)C)[C@H](n2cc(C)c(=O)[nH]c2=O)O[C@@H]1CO[Si](C)(C)C(C)(C)C` [Compound 8, 1-[3’-Deoxy-3’-C-(ethylsulfanylmethyl)-2’,5’-di-O-(tert-butyldimethylsilyl)-β-D-xylofuranosyl]-thymine] displayed an IC50 of 16.9 ± 0.55 µM. In test [2], the “SI (selectivity index)” value came out at 1.09 and half-maximal inhibition (IC50) was put at 15.5 ± 0.59 µM.

In turn, `Cc1cn([C@@H]2O[C@H](CO[Si](C)(C)C(C)(C)C)[C@H](CSC(C)C)[C@H]2O[Si](C)(C)C(C)(C)C)c(=O)[nH]c1=O` [Compound 9, 1-[3’-Deoxy-3’-C-(i-propylsulfanylmethyl)-2’,5’-di-O-(tert-butyldimethylsilyl)-β-D-xylofuranosyl]-thymine] yielded an IC50 in test [1] of 22.7 ± 1.34 µM. Besides, in test [2], the “SI (selectivity index)” value was found to be 1.49 and the IC50 worked out at 15.2 ± 0.48 µM.

In the case of `Cc1cn([C@@H]2O[C@H](CO[Si](C)(C)C(C)(C)C)[C@H](CSCC(C)C)[C@H]2O[Si](C)(C)C(C)(C)C)c(=O)[nH]c1=O` [Compound 11, 1-[3’-Deoxy-3’-C-(i-butylsulfanylmethyl)-2’,5’-di-O-(tert-butyldimethylsilyl)-β-D-xylofuranosyl]-thymine], the 50% inhibitory concentration (IC50) in test [1] is 15.5 ± 2.14 µM. Besides, in test [2], the “SI (selectivity index)” value was 0.66 and the IC50 was found to be 23.5 ± 0.12 µM.

`Cc1cn([C@@H]2O[C@H](CO[Si](C)(C)C(C)(C)C)[C@H](CSC(C)(C)C)[C@H]2O[Si](C)(C)C(C)(C)C)c(=O)[nH]c1=O` [Compound 12, 1-[3’-Deoxy-3’-C-(t-butylsulfanylmethyl)-2’,5’-di-O-(tert-butyldimethylsilyl)-β-D-xylofuranosyl]-thymine]: the half-inhibitory concentration (IC50) is greater than 34.9 µM in test [1] and 31.1 ± 0.79 µM in test [2].

Consider `CCCCCCSC[C@@H]1[C@@H](O[Si](C)(C)C(C)(C)C)[C@H](n2cc(C)c(=O)[nH]c2=O)O[C@@H]1CO[Si](C)(C)C(C)(C)C` [Compound 13, 1-[3’-Deoxy-3’-C-(n-hexylsulfanylmethyl)-2’,5’-di-O-(tert-butyldimethylsilyl)-β-D-xylofuranosyl]-thymine], for which the results for the IC50 in test [1] and in test [2] were 22.9 ± 0.57 µM and 15.9 ± 0.32 µM, respectively. The “SI (selectivity index)” value in test [2] is reported as 1.44.

In test [1], `CCCCCCCCSC[C@@H]1[C@@H](O[Si](C)(C)C(C)(C)C)[C@H](n2cc(C)c(=O)[nH]c2=O)O[C@@H]1CO[Si](C)(C)C(C)(C)C` [Compound 14, 1-[3’-Deoxy-3’-C-(n-octylsulfanylmethyl)-2’,5’-di-O-(tert-butyldimethylsilyl)-β-D-xylofuranosyl]-thymine] registered a half-inhibitory concentration (IC50) of 26.4 ± 0.37 µM. For the same molecule, in test [2], the “SI (selectivity index)” value came to 1.02 and the half-maximal inhibitory concentration (IC50) turned out to be 26 ± 0.76 µM.

Regarding `CCCCCCCCCCCCSC[C@@H]1[C@@H](O[Si](C)(C)C(C)(C)C)[C@H](n2cc(C)c(=O)[nH]c2=O)O[C@@H]1CO[Si](C)(C)C(C)(C)C` [Compound 15, 1-[3’-Deoxy-3’-C-(n-dodecylsulfanylmethyl)-2’,5’-di-O-(tert-butyldimethylsilyl)-β-D-xylofuranosyl]-thymine], in test [1], the half-maximal inhibitory concentration (IC50) was greater than 20 µg/mL and the “HaCaT IC50” value is reported as “complete loss of activity”. For the same molecule, in test [2], the “SCC IC50” value was “complete loss of activity” and the IC50 was greater than 20 µg/mL.

Turning to `Cc1cn([C@@H]2O[C@H](CO[Si](C)(C)C(C)(C)C)[C@H](CSCc3ccccc3)[C@H]2O[Si](C)(C)C(C)(C)C)c(=O)[nH]c1=O` [Compound 16, 1-[3’-Deoxy-3’-C-(benzylsulfanylmethyl)-2’,5’-di-O-(tert-butyldimethylsilyl)-β-D-xylofuranosyl]-thymine], 14.3 ± 0.36 µM corresponded to half-maximal inhibition in test [1] (IC50). Besides, in test [2], the “SI (selectivity index)” value came out at 0.98 and the IC50 came out at 14.6 ± 0.19 µM.

In the case of `Cc1cn([C@@H]2O[C@H](CO[Si](C)(C)C(C)(C)C)[C@H](CSCCO)[C@H]2O[Si](C)(C)C(C)(C)C)c(=O)[nH]c1=O` [Compound 17, 1-[3’-Deoxy-3’-C-(2-hydroxyethylsulfanylmethyl)-2’,5’-di-O-(tert-butyldimethylsilyl)-β-D-xylofuranosyl]-thymine], the IC50 in test [1] is 14.6 ± 0.82 µM; in test [2] it was 16 ± 0.17 µM. Also, in test [2], the “SI (selectivity index)” value is given as 0.91.
